Measurements published in US12397056B2, “System for inducing sonoporation of a drug into cancer cells and method thereof” (Freedom Waves S.R.L, priority 2018, dated 2025).
Entries after “also recorded” stand apart in the source; their conditions may differ.

Columns and labels:
Format in all cases: cell-based
[1] = tested on: MiaPaCa-2: human pancreatic adenocarcinoma; assay: Cell death of MiaPaCa-2 cells after drug with or without pLINFU sonoporation; conditions: MiaPaCa2
Description: (§1) The system of the present invention was tested in vitro using two cellular lines of human breast cancer and one cellular line of human pancreatic adenocarcinoma. In particular the following cellular lines were employed: • MCF-7: human breast ductal carcinoma; • MDA-MB-231: estrogen independent human breast adenocarcinoma; • MiaPaCa-2: human pancreatic adenocarcinoma.
(§2) For each combination the percentage of cell death was measured in three main experimental conditions: • administration of the drug (hereinafter named “NO-US” condition); • administration of the drug and simultaneous administration of non focalized pulsed low-intensity ultrasound with a frequency of 1 MHz and a period of 1 second, said drug being administered in a unique dose; • 1 administration of non focalized pulsed low-intensity ultrasound with a frequency of 1 MHz and a period of 1 second, followed by administration of the drug; and • administration of the drug and simultaneous administration of non focalized pulsed low-intensity ultrasound with a frequency of 1 MHz and a period of 1 second, said drug being administered in two doses of equal concentration (hereinafter termed “US-DC” condition).
(§3) All the experimental conditions, other than NO-US, were replicated for different values of duty cycle and each experimental condition were replicated for three different total concentrations of drugs. Several operation times were also tested for each cellular lines and for each type of drug.

[2] = tested on: MCF-7: human breast ductal carcinoma; assay: Cell death of MCF-7 cells after drug with or without pLINFU sonoporation
Description: as §1, §2, §3

[3] = tested on: MDA-MB-231: estrogen independent human breast adenocarcinoma; assay: Cell death of MDA-MB-231 cells after drug with or without pLINFU sonoporation
Description: as §1, §2, §3

[4] = tested on: human pancreatic adenocarcinoma cells; assay: Internalization of fluoresceinamine (FA) into cancer cells (FIG. 7, CLSM)
Excerpt: This example is relative to an experiment of internalization of a fluoresceinamine (FA). […] The tested experimental condition are: • FA-NO-US-NO DRUG: administration of FA alone, without administration of any drug and without administration of ultrasounds; • FA-LI-NO-US: administration of FA and liposomal irinotecan (LI), without administration of ultrasounds; • US-DC=12%: administration of FA and liposomal irinotecan (LI), with the simultaneous administration of pLINFUs with a duty cycle of 12%; • US-PRE-DC=1%: administration of pLINFUs with a duty cycle of 1% followed by subsequent administration of FA and liposomal irinotecan (LI); and • US-DC=1%: administration of FA and liposomal irinotecan (LI), with the simultaneous administration of pLINFUs with a duty cycle of 1%.
In FIG. 7, it is graphically represented the FA Internalization (%), i.e. the percentage of FA measured after the removal of the […] liquid from the cell culture wells, i.e. the percentage of FA inside the cell. The results of the experiment of this example were also analyzed by Confocal Laser Scanning Microscopy (CLSM) after 2 hours of incubation. FIGS. 8a, 8b, 8c, 8d, 8e show the intake of the FA into human pancreatic adenocarcinoma cells, in the five aforementioned experimental conditions.
It can be explained with a greater chemical interaction between the polymeric chains of polyethylene glycol of the liposomal membrane and the FA.

[5] = total concentration 100 μg/ml, NO-US (no ultrasound)
[6] = total concentration 100 μg/ml, US-DC = 9%
[7] = total concentration 100 μg/ml, US-DC = 9% (pLINFU 1 MHz, 20 s + 20 s)
[8] = total concentration 100 μg/ml, US-DC = 12%
[9] = total concentration 100 μg/ml, US-DC = 12% (pLINFU 1 MHz, 20 s + 20 s)
[10] = total concentration 500 μg/ml, NO-US (no ultrasound)
[11] = total concentration 500 μg/ml, US-DC = 9%
[12] = total concentration 500 μg/ml, US-DC = 9% (pLINFU 1 MHz, 20 s + 20 s)
[13] = total concentration 500 μg/ml, US-DC = 12%
[14] = total concentration 500 μg/ml, US-DC = 12% (pLINFU 1 MHz, 20 s + 20 s)
[15] = total concentration 1000 μg/ml, US-DC = 9%
[16] = total concentration 1000 μg/ml, US-DC = 9% (pLINFU 1 MHz, 20 s + 20 s)
[17] = total concentration 1000 μg/ml, US-DC = 12%
[18] = total concentration 0.5 μM, NO-US (no ultrasound)
[19] = total concentration 0.5 μM, US-DC = 9%
[20] = total concentration 0.5 μM, US-DC = 9% (pLINFU 1 MHz, 20 s + 20 s)
[21] = total concentration 0.5 μM, US-DC = 12%
[22] = total concentration 0.5 μM, US-DC = 12% (pLINFU 1 MHz, 20 s + 20 s)
[23] = total concentration 10 μM, NO-US (no ultrasound)
[24] = total concentration 10 μM, US-DC = 9%
[25] = total concentration 10 μM, US-DC = 9% (pLINFU 1 MHz, 20 s + 20 s)
[26] = total concentration 10 μM, US-DC = 12%
[27] = total concentration 10 μM, US-DC = 12% (pLINFU 1 MHz, 20 s + 20 s)
[28] = total concentration 50 μM, NO-US (no ultrasound)
[29] = total concentration 50 μM, US-DC = 9%
[30] = total concentration 50 μM, US-DC = 9% (pLINFU 1 MHz, 20 s + 20 s)
[31] = total concentration 50 μM, US-DC = 12%
[32] = total concentration 50 μM, US-DC = 12% (pLINFU 1 MHz, 20 s + 20 s)

## CCc1c2c(nc3ccc(OC(=O)N4CCC(N5CCCCC5)CC4)cc13)-c1cc3c(c(=O)n1C2)COC(=O)[C@]3(O)CC [Irinotecan]
[1]; total concentration 0.05 μM, NO-US (no ultrasound)
  Cell Death %: 11.5%
[1]; total concentration 0.05 μM, US-DC = 1%
  Increasing % vs NO-US: +120.8%
[1]; total concentration 0.05 μM, US-DC = 1% (pLINFU 1 MHz, 20 s + 20 s)
  Cell Death %: 25.4%
[1]; total concentration 0.05 μM, US-DC = 12%
  Increasing % vs NO-US: +60.6%
[1]; total concentration 0.05 μM, US-DC = 12% (pLINFU 1 MHz, 20 s + 20 s)
  Cell Death %: 18.5%
[1]; total concentration 1 μM, NO-US (no ultrasound)
  Cell Death %: 21.1%
[1]; total concentration 1 μM, US-DC = 1%
  Increasing % vs NO-US: +62.9%
[1]; total concentration 1 μM, US-DC = 1% (pLINFU 1 MHz, 20 s + 20 s)
  Cell Death %: 34.3%
[1]; total concentration 1 μM, US-DC = 12%
  Increasing % vs NO-US: +42.5%
[1]; total concentration 1 μM, US-DC = 12% (pLINFU 1 MHz, 20 s + 20 s)
  Cell Death %: 30%
[1]; total concentration 50 μM (irinotecan series), NO-US (no ultrasound)
  Cell Death %: 56.7%
[1]; total concentration 50 μM (irinotecan series), US-DC = 1%
  Increasing % vs NO-US: +31.1%
[1]; total concentration 50 μM (irinotecan series), US-DC = 1% (pLINFU 1 MHz, 20 s + 20 s)
  Cell Death %: 74.3%
[1]; total concentration 50 μM (irinotecan series), US-DC = 12%
  Increasing % vs NO-US: +16.5%
[1]; total concentration 50 μM (irinotecan series), US-DC = 12% (pLINFU 1 MHz, 20 s + 20 s)
  Cell Death %: 66%

## COc1cccc2c1C(=O)c1c(O)c3c(c(O)c1C2=O)C[C@@](O)(C(=O)CO)C[C@@H]3O[C@H]1C[C@H](N)[C@H](O)[C@H](C)O1 [Doxorubicin]
[2]; [5]
  Cell Death %: 17.1%
[2]; [6]
  Increasing % vs NO-US: +74.4%
[2]; [7]
  Cell Death %: 29.8%
[2]; [8]
  Increasing % vs NO-US: +64.9%
[2]; [9]
  Cell Death %: 28.2%
[2]; [10]
  Cell Death %: 23.3%
[2]; [11]
  Increasing % vs NO-US: +102.5%
[2]; [12]
  Cell Death %: 47.2%
[2]; [13]
  Increasing % vs NO-US: +114.2%
[2]; [14]
  Cell Death %: 49.9%
[2]; total concentration 1000 μg/ml, NO-US (no ultrasound)
  Cell Death %: 59%
[2]; [15]
  Increasing % vs NO-US: +19.7%
[2]; [16]
  Cell Death %: 70.6%^
[2]; [17]
  Increasing % vs NO-US: +39%
[2]; total concentration 1000 μg/ml, US-DC = 12% (pLINFU 1 MHz, 20 s + 20 s)
  Cell Death %: 82%
[3]; [5]
  Cell Death %: 10.9%
[3]; [6]
  Increasing % vs NO-US: +116%
[3]; [7]
  Cell Death %: 23.5%
[3]; [8]
  Increasing % vs NO-US: +11.8%
[3]; [9]
  Cell Death %: 12%
[3]; [10]
  Cell Death %: 22.8%
[3]; [11]
  Increasing % vs NO-US: +70.5%
[3]; [12]
  Cell Death %: 38.8%
[3]; [13]
  Increasing % vs NO-US: +18.4%
[3]; [14]
  Cell Death %: 27%
[3]; [15]
  Increasing % vs NO-US: +11.1%
[3]; [16]
  Cell Death %: 60.5%
[3]; [17]
  Increasing % vs NO-US: +0.3%

## Nc1ccc2c(c1)C(=O)OC21c2ccc(O)cc2Oc2cc(O)ccc21 [FA, fluoresceinamine]
[4]; FA-LI-NO-US: FA with liposomal irinotecan, no ultrasound, FIG. 8b
  intake of the FA into cells (CLSM): greater fluorescence density is observed, but only at an extracellular perimembrane level
[4]; FA-NO-US-NO DRUG: FA alone, no drug, no ultrasound, 2 hours incubation, FIG. 8a
  intake of the FA into cells (CLSM): not accumulated in the cells
[4]; US-DC=1% compared with the other four conditions, FIG. 7
  FA Internalization (%): higher FA internalization %
[4]; US-DC=1%: FA with liposomal irinotecan, simultaneous pLINFU duty cycle 1%, FIG. 8e
  intake of the FA into cells (CLSM): highest level of FA internalization
[4]; US-DC=12%: FA with liposomal irinotecan, simultaneous pLINFU duty cycle 12%, FIG. 8c
  intake of the FA into cells (CLSM): the presence of FA inside the cells became evident
[4]; US-PRE-DC=1%: pLINFU duty cycle 1% followed by FA and liposomal irinotecan, FIG. 8d
  intake of the FA into cells (CLSM): the presence of FA inside the cells became evident; also recorded: a certain grade of FA internalization is achieved

## CC(=O)O[C@H]1C(=O)[C@@]2(C)[C@H]([C@H](OC(=O)c3ccccc3)[C@]3(O)C[C@H](OC(=O)[C@H](O)[C@@H](NC(=O)c4ccccc4)c4ccccc4)C(C)=C1C3(C)C)[C@]1(OC(C)=O)CO[C@@H]1C[C@@H]2O [Paclitaxel]
[2]; [18]
  Cell Death %: 1.0%
[2]; [19]
  Increasing % vs NO-US: +807.5%
[2]; [20]
  Cell Death %: 9.1%
[2]; [21]
  Increasing % vs NO-US: +242.5%
[2]; [22]
  Cell Death %: 3.4%
[2]; [23]
  Cell Death %: 4.1%
[2]; [24]
  Increasing % vs NO-US: +484.7%
[2]; [25]
  Cell Death %: 24%
[2]; [26]
  Increasing % vs NO-US: +221.6%
[2]; [27]
  Cell Death %: 13.2%
[2]; [28]
  Cell Death %: 7.2%
[2]; [29]
  Increasing % vs NO-US: +354.2%
[2]; [30]
  Cell Death %: 32.7%
[2]; [31]
  Increasing % vs NO-US: +147.3%
[2]; [32]
  Cell Death %: 17.8%
[1]; [18]
  Cell Death %: 45.5%
[1]; total concentration 0.5 μM, US-DC = 1%
  Increasing % vs NO-US: 40.1%
[1]; total concentration 0.5 μM, US-DC = 1% (pLINFU 1 MHz, 20 s + 20 s)
  Cell Death %: 22.7%
[1]; [21]
  Increasing % vs NO-US: 17.1%
[1]; [22]
  Cell Death %: 12.7%
[1]; [23]
  Cell Death %: 65.3%
[1]; total concentration 10 μM, US-DC = 1%
  Increasing % vs NO-US: +22.7%
[1]; total concentration 10 μM, US-DC = 1% (pLINFU 1 MHz, 20 s + 20 s)
  Cell Death %: 12.8%
[1]; [26]
  Increasing % vs NO-US: +12.7%
[1]; [27]
  Cell Death %: 9.2%
[1]; [28]
  Cell Death %: 80.2%
[1]; total concentration 50 μM, US-DC = 1%
  Increasing % vs NO-US: +12.8%
[1]; total concentration 50 μM, US-DC = 1% (pLINFU 1 MHz, 20 s + 20 s)
  Cell Death %: 90.5%
[1]; [31]
  Increasing % vs NO-US: +9.2%
[1]; [32]
  Cell Death %: 87.6%
[3]; [18]
  Cell Death %: 6.4%
[3]; [19]
  Increasing % vs NO-US: +76.6%
[3]; [20]
  Cell Death %: 11.3%
[3]; [21]
  Increasing % vs NO-US: −7.8%
[3]; [22]
  Cell Death %: 5.9%
[3]; [23]
  Cell Death %: 6.4%
[3]; [24]
  Increasing % vs NO-US: +128.4%
[3]; [25]
  Cell Death %: 14.7%
[3]; [26]
  Increasing % vs NO-US: +15%
[3]; [27]
  Cell Death %: 7.4%
[3]; [28]
  Cell Death %: 7.9%
[3]; [29]
  Increasing % vs NO-US: +221.9%
[3]; [30]
  Cell Death %: 25.5%
[3]; [31]
  Increasing % vs NO-US: +55.3%
[3]; [32]
  Cell Death %: 12.3%
